Patent publication US4618677A, “Substituted phenylalkyl-(piperazinyl or homopiperazinyl)alkyl-thiols and -thiocarbamates useful for the treatment of immunological, inflammatory, and allergic disorders” (Boehringer Ingelheim Limited, priority 1984, dated 1986)
“And” between values parts separate entries of the source, which are not always exact repeats. Identical values can stand only once. Counter-ions that a name gives are not always drawn. Like-named read-outs stand apart in the source and are kept apart here.

Experiments:
[1] = system: human leukocytes (basophils); assay: Inhibition of IgE-mediated histamine release from human leukocytes (basophils), Procedure A; format: cell-based; conditions: Leukocyte, 1 h, read-out: In Vitro Inhibition of Histamine Release IC50 (μM) Procedure A
Protocol: A. Procedure for Determining Inhibition of Histamine Release from Human Leukocytes (Basophils)
Separation of Leukocytes: A modification of the method of L. Lichtenstein and A. Osler, J. Exp. Med. 120, 507 (1964) is used. Heparinized human blood (80-100 ml) is mixed with 20 ml of saline (0.2%) containing 0.6 gm of dextrose and 1.2 gm of dextran in propylene centrifuge tubes. The mixture is kept at ambient temperature for 60-90 minutes to allow the separation of erythrocytes from the platelet-leukocyte-rich supernate. The supernate is removed and centrifuged for 8 minutes at 110 ×g in cold. The leukocyte pellet is washed twice with Tris buffer and finally suspended in 150-180 ml Tris-ACM buffer at 1-2 ×10^6 cells/ml.
Reaction Mixture: The reaction is carried out in 12×75 mm plastic tubes at a total volume of 1.23 ml. The reaction medium includes 0.05 ml rabbit anti-human IgE (the antigen), 0.2 ml of the test compound in water at concentrations ranging from 10-100 μM, and 1.0 ml of the leukocyte suspension. The reaction mixture is incubated in a 37° C. shaking water bath for 60 minutes. Upon completion of the reaction, the tubes are centrifuged and the supernatants collected. The protein is removed from the supernatants by precipitation with 0.2 ml of 8% perchloric acid.
Histamine Assay: Histamine release is measured by the automated fluorometric method of W. Siraganian and W. Hook in Chapter 102 of the Manual of Clinical Immunology, 2nd Edition, edited by R. Rose and H. Friedman, published by the American Society for Microbiology, Washington, D.C., 1980. Percent inhibition is calculated as follows: [formula]
The concentration which causes a 50 percent inhibition (IC50) of histamine release is interpolated from a plot of percent inhibition versus logarithm of drug concentration.

[2] = system: rat peritoneal mast cells; assay: Inhibition of histamine release from rat peritoneal mast cells, Procedure B; format: cell-based; conditions: Mast cell, 1 h, read-out: In Vitro Inhibition of Histamine Release IC50 (μM) Procedure B
Protocol: B. Procedure for Determining Inhibition of Histamine Release from Rat Peritoneal Mast Cells
Harvest of Peritoneal Mast Cells: After the rats are sacrificed with ether, 20 ml of Minimum Essential Medium (MEM) containing 20 units/ml heparin is injected into the peritoneum. The abdomen is massaged for one minute and the lavage fluid collected. The peritoneal cells are centrifuged at 1800 rpm for 8 minutes in cold. After two washes with Tris A buffer, the cells are resuspended in Tris ACM buffer at 2-4×10^6 cells/ml.
Reaction mixture: The reaction is carried out in 12×75 mm plastic tubes at a total volume of 1.25 ml. The reaction mixture includes 0.5 ml (10-1000 μg) sheep anti-rat IgE or ovalbumin, 0.2 ml of the test compound in water at concentrations ranging from 10-1000 μM, 0.5 ml phosphatidylserine solution (20-60 μg to each tube), and 0.5 ml of cell suspension.
The concentration which causes a 50% inhibition (IC50) of histamine release is computed as in Part A.

guinea pig basophils = assay: Inhibition of histamine release from guinea pig basophils, Procedure C; format: cell-based; conditions: Cavia porcellus, 1 h, read-out: In Vitro Inhibition of Histamine Release IC50 (μM) Procedure C
Protocol: C. Procedure for Determining Inhibition of Histamine Release from Guinea Pig Basophils
1. In Vivo Sensitization: Male Hartley guinea pigs (200-300 gm) are immunized on day 0 with two 0.05 ml intradermal injections of 200 μg ovalbumin. Sensitized basophils are available between days 13-25 post-sensitization. This mode of sensitization favors IgE response.
2. Separation of Leukocytes: The method of Lett-Brown et al., Int. Arch. Allergy, Appl. Immun. 64, 241 (1981) is used. Animals are anesthetized with ether and are bled via cardiac puncture, with plastic syringes containing sufficient EDTA to provide a final concentration of 10 mM.
One part of 3% gelatin in saline at 37° C. is mixed with 2 parts of blood in a 16×150 mm tube. The cells are allowed to sediment at a 30° angle for 45 minutes in a 37° C. water bath. The leukocyte-rich plasma is collected and centrifuged at 150×g for 30 minutes at room temperature. The pelleted cells are washed in Hepes-buffered saline (HG) containing 4 mM EDTA and resuspended in Hepes-buffered saline containing […] and Ca^++ (HGCM) at 4-5×10^6 cells/ml.
3. Reaction Mixture: The reaction is carried out in 12×75 mm plastic tubes and a total volume of 1.2 ml which includes 0.5 ml of antigen, 0.2 ml of drug solution at concentrations ranging from 10-1000 μM and 0.5 ml of prewashed cell suspension. The reaction mixture is incubated in a 37° C. shaking water bath for 60 minutes. Upon completion of the reaction, the tubes are centrifuged and the supernatants collected. The protein is removed from the supernatants by precipitation with 0.2 ml of 8% perchloric acid.
4. Histamine Assay: Histamine release is measured by the automated fluorometric method of Siraganian, supra. The concentration which causes a 50 percent inhibition of histamine release is computed as in Part A.

histamine (H1) receptor = molecular target: T1, histamine (H1) receptor (Cavia porcellus, UniProt P31389); assay: Antagonism of histamine-induced contraction of isolated guinea pig ileum; format: tissue-based; conditions: histamine final concentration 0.2 μg/ml, 50% reduction of contractile response, read-out: Inhibition IC50 (μM) of histamine-induced contraction
T1 construct: contraction of isolated guinea pig ileum; from tissue; host or cells: isolated guinea pig ileum
T1 sequence (P31389 whole entry): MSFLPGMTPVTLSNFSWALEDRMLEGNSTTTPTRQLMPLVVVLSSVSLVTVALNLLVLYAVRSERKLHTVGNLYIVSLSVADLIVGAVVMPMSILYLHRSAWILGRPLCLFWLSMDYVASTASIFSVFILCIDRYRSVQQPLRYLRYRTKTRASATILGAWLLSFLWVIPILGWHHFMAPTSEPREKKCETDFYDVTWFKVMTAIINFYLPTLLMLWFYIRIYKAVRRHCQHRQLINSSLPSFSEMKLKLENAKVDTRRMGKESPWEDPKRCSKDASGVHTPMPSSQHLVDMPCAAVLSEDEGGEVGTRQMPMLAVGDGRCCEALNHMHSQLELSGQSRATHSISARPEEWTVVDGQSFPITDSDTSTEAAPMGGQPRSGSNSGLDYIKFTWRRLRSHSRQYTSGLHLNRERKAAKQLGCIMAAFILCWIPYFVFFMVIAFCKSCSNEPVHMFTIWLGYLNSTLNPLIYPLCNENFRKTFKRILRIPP
Excerpt: Certain compounds of formula I inhibit in vitro the histamine-induced contraction of isolated guinea pig ileum and are useful in warm-blooded animals for antagonizing the action of histamine at the histamine (H1) receptor. Accordingly, these compounds can be employed in a conventional manner as antihistamine agents for the treatment of allergic disorders, for example allergic rhinitis, vasomotor rhinitis, allergic conjunctivitis, hay fever, urticaria, and food allergies.
The antagonism of the effects of histamine on the contraction of isolated guinea pig ileum by the compounds of formula I can be determined by the procedure of G. Possanza, A. Bauen, and P. Stewart, Int. Arch. Allergy Appl. Immunol., 49, 289 (1975). The degree of inhibition is determined as the difference between the contraction caused by histamine (final concentration 0.2 μg/ml) alone and that seen in the presence of both histamine and the test compound. The inhibitory activity of the test compound is expressed as that concentration of the compound which causes a 50% reduction of the contractile response (IC50).

[3] = from human basophils, rabbit anti-human IgE as antigen, 60 min at 37° C., > = no response detected at highest dose indicated
[4] = from rat peritoneal mast cells, sheep anti-rat IgE or ovalbumin, 60 min at 37° C.
[5] = from guinea pig basophils (ovalbumin-sensitized), 60 min at 37° C., > = no response detected at highest dose indicated

| IC50 [1, 3] [µM] | IC50 [2, 4] [µM] | IC50 (histamine (H1) receptor) | Structure (SMILES) | IC50 (guinea pig basophils; [5]) [µM] | IC50 ([1]; Homo sapiens) [µM] | IC50 ([2]; Rattus norvegicus) [µM] | IC50 (guinea pig basophils) [µM] |
| --- | --- | --- | --- | --- | --- | --- | --- |
| 5 | 2 |  | CCCCc1ccc(NC(=O)SCCCN2CCN(CCCc3ccc(Cl)cc3)CC2)cc1 [Example 33, N-(4-n-Butylphenyl)-S-{3-[4-[3-(4-chlorophenyl)propyl]piperazin-1-yl]propyl}thiocarbamate dihydrochloride] | 14 |  |  |  |
| 2.6 | 3 |  | O=C(Nc1ccccc1)SCCCN1CCN(Cc2ccc(Cl)cc2)CC1 [Example 7, N-Phenyl-S-{3-[4-(4-chlorobenzyl)piperazin-1-yl]propyl}thiocarbamate dihydrochloride] | 13 |  |  |  |
| 5 | 3 | 0.06 µM | O=C(NC1CCCCC1)SCCCN1CCN(Cc2ccc(Cl)cc2)CC1 [Example 6, N-Cyclohexyl-S-{3-[4-(4-chlorobenzyl)piperazin-1-yl]propyl}thiocarbamate dihydrochloride] | 20 |  |  |  |
| 5 | 7 | 0.12 µM and 0.09 µM | COc1ccc(NC(=O)SCCCN2CCN(CCc3ccc(Cl)cc3)CC2)cc1 [Example 28, N-(4-Methoxyphenyl)-S-{3-[4-(4-chlorophenethyl)piperazin-1-yl]propyl}thiocarbamate dihydrochloride] | 40 |  |  |  |
|  |  |  | SCCN1CCN(Cc2ccc(Cl)cc2)CC1 [Example 36, 2-[4-(4-Chlorobenzyl)piperazin-1-yl]ethanethiol dihydrochloride] |  | 3 | 5 | > 100 |
